SMILES: C[C@]12C=CC(=O)C=C1CC[C@@H]1[C@@H]2[C@@H](O)C[C@@]2(C)[C@H]1CC[C@]2(O)C(=O)CO
- solubility (mole fraction) (in DMF, 293.2 K): 0.00818
- solubility (mole fraction) (in DMF, 298.2 K): 0.00869
- solubility (mole fraction) (in DMF, 303.2 K): 0.00943
- solubility (mole fraction) (in DMF, 308.2 K): 0.0101
- solubility (mole fraction) (in DMF, 313.2 K): 0.0108
- solubility (mole fraction) (in DMF, 318.2 K): 0.0116
- solubility (mole fraction) (in DMF, 323.2 K): 0.0125
- solubility (mole fraction) (in DMF, 328.2 K): 0.0141
- solubility (mole fraction) (in NMP, 293.2 K): 0.00465
- solubility (mole fraction) (in NMP, 298.2 K): 0.00525
- solubility (mole fraction) (in NMP, 303.2 K): 0.0061
- solubility (mole fraction) (in NMP, 308.2 K): 0.00688
- solubility (mole fraction) (in NMP, 313.2 K): 0.00784
- solubility (mole fraction) (in NMP, 318.2 K): 0.00881
- solubility (mole fraction) (in NMP, 323.2 K): 0.00998
- solubility (mole fraction) (in NMP, 328.2 K): 0.0114
- solubility (mole fraction) (in acetonitrile, 293.2 K): 0.00219
- solubility (mole fraction) (in acetonitrile, 298.2 K): 0.00236
- solubility (mole fraction) (in acetonitrile, 303.2 K): 0.00255
- solubility (mole fraction) (in acetonitrile, 308.2 K): 0.0028
- solubility (mole fraction) (in acetonitrile, 313.2 K): 0.00305
- solubility (mole fraction) (in acetonitrile, 318.2 K): 0.00334
- solubility (mole fraction) (in acetonitrile, 323.2 K): 0.00364
- solubility (mole fraction) (in acetonitrile, 328.2 K): 0.00407
- solubility (mole fraction) (in n-dodecane, 293.2 K): 1.44e-05
- solubility (mole fraction) (in n-dodecane, 298.2 K): 1.64e-05
- solubility (mole fraction) (in n-dodecane, 303.2 K): 1.87e-05
- solubility (mole fraction) (in n-dodecane, 308.2 K): 2.16e-05
- solubility (mole fraction) (in n-dodecane, 313.2 K): 2.45e-05
- solubility (mole fraction) (in n-dodecane, 318.2 K): 2.79e-05
- solubility (mole fraction) (in n-dodecane, 323.2 K): 3.28e-05
- solubility (mole fraction) (in n-dodecane, 328.2 K): 3.82e-05
- solubility (mole fraction) (in n-hexadecane, 293.2 K): 2.15e-05
- solubility (mole fraction) (in n-hexadecane, 298.2 K): 2.35e-05
- solubility (mole fraction) (in n-hexadecane, 303.2 K): 2.61e-05
- solubility (mole fraction) (in n-hexadecane, 308.2 K): 3.01e-05
- solubility (mole fraction) (in n-hexadecane, 313.2 K): 3.4e-05
- solubility (mole fraction) (in n-hexadecane, 318.2 K): 3.88e-05
- solubility (mole fraction) (in n-hexadecane, 323.2 K): 4.5e-05
- solubility (mole fraction) (in n-hexadecane, 328.2 K): 5.41e-05
- solubility (mole fraction) (in n-nonanol, 293.2 K): 0.000507
- solubility (mole fraction) (in n-nonanol, 298.2 K): 0.000643
- solubility (mole fraction) (in n-nonanol, 303.2 K): 0.000833
- solubility (mole fraction) (in n-nonanol, 308.2 K): 0.000999
- solubility (mole fraction) (in n-nonanol, 313.2 K): 0.00126
- solubility (mole fraction) (in n-nonanol, 318.2 K): 0.00151
- solubility (mole fraction) (in n-nonanol, 323.2 K): 0.00179
- solubility (mole fraction) (in n-nonanol, 328.2 K): 0.00215
- solubility (mole fraction) (in n-octanol, 293.2 K): 0.000316
- solubility (mole fraction) (in n-octanol, 298.2 K): 0.000419
- solubility (mole fraction) (in n-octanol, 303.2 K): 0.000568
- solubility (mole fraction) (in n-octanol, 308.2 K): 0.000712
- solubility (mole fraction) (in n-octanol, 313.2 K): 0.000913
- solubility (mole fraction) (in n-octanol, 318.2 K): 0.00114
- solubility (mole fraction) (in n-octanol, 323.2 K): 0.00141
- solubility (mole fraction) (in n-octanol, 328.2 K): 0.0018
- solubility (mole fraction) (in n-pentanol, 293.2 K): 0.000283
- solubility (mole fraction) (in n-pentanol, 298.2 K): 0.000358
- solubility (mole fraction) (in n-pentanol, 303.2 K): 0.000449
- solubility (mole fraction) (in n-pentanol, 308.2 K): 0.000559
- solubility (mole fraction) (in n-pentanol, 313.2 K): 0.000699
- solubility (mole fraction) (in n-pentanol, 318.2 K): 0.000881
- solubility (mole fraction) (in n-pentanol, 323.2 K): 0.0011
- solubility (mole fraction) (in n-pentanol, 328.2 K): 0.00139
- solubility (mole fraction) (in sec-butanol, 293.2 K): 0.000248
- solubility (mole fraction) (in sec-butanol, 298.2 K): 0.000294
- solubility (mole fraction) (in sec-butanol, 303.2 K): 0.000362
- solubility (mole fraction) (in sec-butanol, 308.2 K): 0.000444
- solubility (mole fraction) (in sec-butanol, 313.2 K): 0.00053
- solubility (mole fraction) (in sec-butanol, 318.2 K): 0.000628
- solubility (mole fraction) (in sec-butanol, 323.2 K): 0.00075
- solubility (mole fraction) (in sec-butanol, 328.2 K): 0.000905
- solubility (mole fraction) (in water, 293.2 K): 1.05e-05
- solubility (mole fraction) (in water, 298.2 K): 1.1e-05
- solubility (mole fraction) (in water, 303.2 K): 1.25e-05
- solubility (mole fraction) (in water, 308.2 K): 1.4e-05
- solubility (mole fraction) (in water, 313.2 K): 1.6e-05
- solubility (mole fraction) (in water, 318.2 K): 1.8e-05
- solubility (mole fraction) (in water, 323.2 K): 2e-05
- solubility (mole fraction) (in water, 328.2 K): 2.6e-05

From BigSolDB 2.1
